These compounds were tested against JAK1 (recombinant purified GST-tagged catalytic domain) (Homo sapiens (Human), UniProt P23458) (assay: biochemical).
JAK1 (recombinant purified GST-tagged catalytic domain), sequence (P23458 875-1153): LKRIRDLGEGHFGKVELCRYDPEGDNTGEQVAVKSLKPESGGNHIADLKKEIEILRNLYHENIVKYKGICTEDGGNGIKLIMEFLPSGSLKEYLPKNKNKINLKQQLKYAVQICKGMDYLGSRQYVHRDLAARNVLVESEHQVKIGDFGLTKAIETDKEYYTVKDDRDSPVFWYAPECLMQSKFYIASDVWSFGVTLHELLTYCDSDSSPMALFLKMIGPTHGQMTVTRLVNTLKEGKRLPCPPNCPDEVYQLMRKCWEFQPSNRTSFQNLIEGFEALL

| IC50 [nM] | Compound |
| --- | --- |
| 5 | C[C@@]1(O)CC[C@H](n2cc(C(N)=O)c(Nc3ccc(Cl)c(F)c3)n2)[C@@H](C#N)C1 (single isomer, unassigned) [Example 32-7, 3-[(4-chloro-3-fluorophenyl)amino]-1-[(1S,2S,4R or 1R,2R,4S)-2-cyano-4-hydroxy-4-methylcyclohexyl]-1H-pyrazole-4-carboxamide] |
| 2 | C[C@](O)(c1ccc(Nc2nn([C@H]3CCCC[C@@H]3C#N)cc2C(N)=O)cn1)C(F)(F)F (single isomer, unassigned) [Example 17-34, 1-[(1S,2S or 1R,2R)-2-cyanocyclohexyl]-3-({6-[(1S or 1R)-2,2,2-trifluoro-1-hydroxy-1-methylethyl]pyridin-3-yl}amino)-1H-pyrazole-4-carboxamide] |
| 2 | CC1(C)CN([C@@H]2CC[C@H](n3cc(C(N)=O)c(Nc4ccnc(F)c4)n3)[C@@H](C#N)C2)C1 (single isomer, unassigned) [Example 28-142, 1-[(1S,2S,4R or 1R,2R,4S)-2-cyano-4-(3,3-dimethylazetidin-1-yl)cyclohexyl]-3-[(2-fluoropyridin-4-yl)amino]-1H-pyrazole-4-carboxamide] |
| 2 | COCC(C)(C)N(C)[C@H]1CCC(n2cc(C(N)=O)c(Nc3ccc(Cl)cc3)n2)[C@@H](C#N)C1 (single isomer, unassigned) [Example 28-234, 3-[(4-chlorophenyl)amino]-1-{(1S,2S,4S or 1R,2R,4R)-2-cyano-4-[(2-methoxy-1,1-dimethylethyl)(methyl)ami-no]cyclohexyl}-1H-pyrazole-4-carboxamide] |
| 1 | CN(C)[C@@H]1CC[C@H](n2cc(C(N)=O)c(Nc3ccc(OC(F)F)cc3)n2)[C@@H](C#N)C1 (single isomer, unassigned) [Example 28-95, 1-[(1S,2S,4R or 1R,2R,4S)-2-cyano-4-(dimethylamino)cyclohexyl]-3-{[4-(difluoromethoxy)phenyl]amino}-1H-pyrazole-4-carboxamide] |

These compounds were tested against JAK2 (recombinant purified GST-tagged catalytic domain) (Homo sapiens (Human), UniProt O60674) (assay: biochemical).
JAK2 (recombinant purified GST-tagged catalytic domain), sequence (O60674 849-1124): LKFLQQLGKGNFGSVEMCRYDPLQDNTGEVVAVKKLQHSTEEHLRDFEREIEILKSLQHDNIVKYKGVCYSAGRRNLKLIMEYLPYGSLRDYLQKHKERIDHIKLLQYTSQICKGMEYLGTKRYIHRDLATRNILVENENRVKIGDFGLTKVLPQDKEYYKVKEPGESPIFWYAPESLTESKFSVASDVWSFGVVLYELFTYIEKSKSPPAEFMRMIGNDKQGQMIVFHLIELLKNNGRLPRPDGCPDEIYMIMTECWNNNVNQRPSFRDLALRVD

| Compound | IC50 [nM] |
| --- | --- |
| N#C[C@@H]1CCCC[C@H]1n1cc(C(N)=O)c(Nc2ccc(S(=O)(=O)C(F)F)cc2)n1 (single isomer, unassigned) [Example 43-5, 1-[(1S,2S or 1R,2R)-2-cyanocyclohexyl]-3-({4-[(difluoromethyl)sulfonyl]phenyl}amino)-1H-pyrazole-4-carboxamide] | 28 |
| CC(C)(C)OC(=O)NC1CC[C@H](C#N)C(n2cc(C(N)=O)c(Nc3ccc(F)cc3)n2)C1 (mixture of isomers) [Example 11-3, tert-butyl [(1R,3S,4S and 1S,3R,4R) or (1S,3S,4S and 1R,3R,4R)-3-{4-carbamoyl-3-[(4-fluorophenyl)amino]-1H-pyrazol-1-yl}-4-cyanocyclohexyl]carbamate] | 49 |
| N#C[C@H]1CCCC[C@@H]1n1cc(C(N)=O)c(Nc2ccc(Cl)c(F)c2)n1 (racemic) [Example 17-56, 3-[(4-chloro-3-fluorophenyl)amino]-1-[(1S,2S and 1R,2R)-2-cyanocyclohexyl]-1H-pyrazole-4-carboxamide] | 37 |
| CC1(N[C@H]2CCC(n3cc(C(N)=O)c(Nc4ccc(Cl)cc4)n3)[C@@H](C#N)C2)COC1 (single isomer, unassigned) [Example 28-207, 3-[(4-chlorophenyl)amino]-1-{(1S,2S,4S or 1R,2R,4R)-2-cyano-4-[(3-methyloxetan-3-yl)amino]cyclohexyl}-1H-pyrazole-4-carboxamide] | 22 |
| CC(C)(N[C@H]1CCC(n2cc(C(N)=O)c(Nc3ccccc3)n2)[C@@H](C#N)C1)C1CC1 (single isomer, unassigned) [Example 28-214, 1-{(1S,2S,4S or 1R,2R,4R)-2-cyano-4-[(1-cyclopropyl-1-methylethyl)amino]cyclohexyl}-3-(phenylamino)-1H-pyrazole-4-carboxamide] | 38 |
| CC(C)(C)OC(=O)NC1CC[C@H](C#N)C(n2cc(C(N)=O)c(Nc3ccc(F)cc3)n2)C1 (mixture of isomers) [Example 11-5, tert-butyl [(1R,3S,4S and 1S,3R,4R) or (1S,3S,4S and 1R,3R,4R)-3-{4-carbamoyl-3-[(4-fluorophenyl)amino]-1H-pyrazol-1-yl}-4-cyanocyclohexyl]carbamate] | 22 |
| CC(C)(c1ccc(Nc2nn([C@H]3CCCC[C@@H]3C#N)cc2C(N)=O)cc1F)[C@H](O)C(F)(F)F (single isomer, unassigned) [Example 17-32, 1-[(1S,2S or 1R,2R)-2-cyanocyclohexyl]-3-({3-fluoro-4-[(2S or 2R)-3,3,3-trifluoro-2-hydroxy-1,1-dimethylpropyl]phenyl}amino)-1H-pyrazole-4-carboxamide] | 11 |
| N#C[C@H]1CCCC[C@@H]1n1cc(C(N)=O)c(Nc2ccccc2)n1 (racemic) [Example 2-1, 1-((1S,2S and 1R,2R)-2-cyanocyclohexyl)-3-(phenylamino)-1H-pyrazole-4-carboxamide] | 36 |
| CN[C@@H]1CC[C@H](n2cc(C(N)=O)c(Nc3ccc(Cl)c(F)c3)n2)[C@@H](C#N)C1 (single isomer, unassigned) [Example 28-39, 3-[(4-chloro-3-fluorophenyl)amino]-1-[(1S,2S,4R or 1R,2R,4S)-2-cyano-4-(methylamino)cyclohexyl]-1H-pyrazole-4-carboxamide] | 35 |
| N#C[C@H]1CCCC[C@@H]1n1cc(C(N)=O)c(Nc2ccc(S(=O)(=O)Nc3ccc4cccnc4c3)cc2)n1 (single isomer, unassigned) [Example 17-94, 1-[(1R,2R or 1S,2S)-2-cyanocyclohexyl]-3-{[4-(quinolin-7-ylsulfamoyl)phenyl]amino}-1H-pyrazole-4-carboxamide] | 33 |

Continued, values first:

| IC50 [nM] | Compound |
| --- | --- |
| 170 | CN(C(C1CC1)C1CC1)[C@@H]1CC[C@H](n2cc(C(N)=O)c(Nc3ccc(S(=O)(=O)C(F)(F)F)cc3)n2)[C@@H](C#N)C1 (single isomer, unassigned) [Example 28-179, 1-{(1S,2S,4R or 1R,2R,4S)-2-cyano-4-[(dicyclopropyl-methyl)(methyl)amino]cyclo-hexyl}-3-({4-[(trifluoromethyl)sulfonyl]phen-yl}amino)-1H-pyrazole-4-carboxamide] |
| 113 | N#C[C@H]1C[C@H](NC2CC2)CC[C@@H]1n1cc(C(N)=O)c(Nc2ccc(C(F)(F)F)cc2)n1 (single isomer, unassigned) [Example 28-139, 1-[(1S,2S,4R or 1R,2R,4R)-2-cyano-4-(cyclopropylamino)cyclohexyl]-3-{[4-(trifluoromethyl)phenyl]amino}-1H-pyrazole-4-carboxamide] |
| 21 | CC1(CN[C@@H]2CC[C@H](n3cc(C(N)=O)c(Nc4ccc(C(F)(F)F)cc4)n3)[C@@H](C#N)C2)COC1 (single isomer, unassigned) [Example 28-16, 1-[(1S,2S,4R or 1R,2R,4S)-2-cyano-4-{[(3-methyloxetan-3-yl)methyl]amino}cyclohexyl]-3-{[4-(trifluoromethyl)phenyl]amino}-1H-pyrazole-4-carboxamide] |
| 32 | N#C[C@@H]1C[C@H](OCC2CC2)CC[C@H]1n1cc(C(N)=O)c(Nc2ccc([C@H](O)C(F)(F)F)cc2)n1 (single isomer, unassigned) [Example 26-6, 1-[(1R,2R,4R or 1S,2S,4S)-2-cyano-4-(cyclopropylmethoxy)cyclohexyl]-3-({4-[(1S or 1R)-2,2,2-trifluoro-1-hydroxyethyl]phenyl}amino)-1H-pyrazole-4-carboxamide] |
| 43 | CC(N[C@@H]1CC[C@H](n2cc(C(N)=O)c(Nc3ccc(S(=O)(=O)C(F)(F)F)cc3)n2)[C@@H](C#N)C1)C1CC1 (single isomer, unassigned) [Example 28-177, 1-[(1S,2S,4R or 1R,2R,4S)-2-cyano-4-{[(1S)-1-cyclopropylethyl]amino}cyclo-hexyl]-3-({4-[(trifluoromethyl)sulfonyl]phen-yl]amino)-1H-pyrazole-4-carboxamide] |
| 500 | N#C[C@H]1C[C@H](NCc2c(F)cccc2F)CC[C@@H]1n1cc(C(N)=O)c(Nc2ccc(C(F)(F)F)cc2)n1 (single isomer, unassigned) [Example 30-13, 1-{(1S,2S,4R or 1R,2R,4S)-2-cyano-4-[(2,6-difluoro-benzyl)amino]cyclohexyl}-3-{[4-(trifluoromethyl)phenyl]amino}-1H-pyrazole-4-carboxamide] |
| 23 | C[C@H](N[C@H]1CC[C@H](n2cc(C(N)=O)c(Nc3ccc(S(=O)(=O)C(F)(F)F)cc3)n2)[C@@H](C#N)C1)C1CC1 (single isomer, unassigned) [Example 28-184, 1-{(1S,2S,4S or 1R,2R,4R)-2-cyano-4-[(1-cyclopropylethyl)amino]cyclo-hexyl}-3-({4-[(trifluoromethyl)sulfonyl]phen-yl}amino)-1H-pyrazole-4-carboxamide] |
| 21 | CN(C)[C@@H]1CC[C@H](n2cc(C(N)=O)c(Nc3ccc(C(F)(F)F)cc3)n2)[C@@H](C#N)C1 (single isomer, unassigned) [Example 28-189, 1-[(1S,2S,4R or 1R,2R,4S)-2-cyano-4-(dimethylamino)cyclohexyl]-3-{[4-(trifluoromethyl)phenyl]amino}-1H-pyrazole-4-carboxamide] |
| 14 | N#C[C@H]1CC(N2CCC[C@@H]2CF)CC[C@@H]1n1cc(C(N)=O)c(Nc2ccc(S(=O)(=O)C(F)(F)F)cc2)n1 (single isomer, unassigned) [Example 28-156, 1-{(1S,2S or 1R,2R)-2-cyano-4-[(2R)-2-(fluoromethyl)pyrrolidin-1-yl]cyclohexyl}-3-({4-[(trifluoro-methyl)sulfonyl]phenyl}amino)-1H-pyrazole-4-carboxamide] |
| 24 | N#C[C@H]1C[C@H](NCC2CC2)CC[C@@H]1n1cc(C(N)=O)c(Nc2ccc(S(=O)(=O)C(F)(F)F)cc2)n1 (single isomer, unassigned) [Example 28-173, 1-{(1S,2S,4R or 1R,2R,4S)-2-cyano-4-[(cyclopropyl-methyl)amino]cyclohexyl}-3-({4-[(trifluoro-methyl)sulfonyl]phenyl}amino)-1H-pyrazole-4-carboxamide] |

Source: US8962608B2, “Cycloalkylnitrile pyrazole carboxamides as janus kinase inhibitors” (Merck Sharp & Dohme Corp., priority 2011, dated 2015)
